“Also recorded” adds a separate entry of the source.

Holding throughout (type): biochemical
One test has as its target T1, SETD8 (Homo sapiens, UniProt Q9NQR1).
T1 construct: SETD8 residues 186–352; His6 (N); made in house; host or cells: Escherichia coli Rosetta BL21 (DE3)pLysS
T1 sequence (Q9NQR1 186-352 isoform Q9NQR1-2): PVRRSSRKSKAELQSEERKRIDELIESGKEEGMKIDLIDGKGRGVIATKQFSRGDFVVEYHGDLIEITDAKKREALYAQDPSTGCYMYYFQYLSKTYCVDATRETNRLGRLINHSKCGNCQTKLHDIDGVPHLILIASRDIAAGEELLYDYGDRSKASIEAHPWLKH
Nature of the test: SETD8 kinetics by MALDI-TOF MS enzymatic assay. The protocol: To determine the substrate specificity of SETD8 towards the two histone peptides bearing the unnatural lysine analogues KO and KN, a kinetic investigation was carried out employing a MALDI-TOF MS enzymatic assay[17],[18],[21]. KMT-catalyzed methylation of the oxalysine- and azalysine-containing histone peptides was characterized by slower substrate conversion rates (kcat) compared to their respective natural sequences, a result that we attribute to their poorer nucleophilic character due to the electron-withdrawing properties of the O and NH moieties. Furthermore, a highly hydrophobic channel of the methyltransferases is poorly tailored for significant electrostatic changes in the hydrophobic nature of the lysine side chain, likely leading to a larger penalty for desolvation of γ-azalysine and γ-oxalysine. Combined with the altered Km values for H4KO20 and H4KN20, this translated into a generally slightly worse catalytic efficiency for these two lysine analogues.
(§1) Human KMTs enzymes were expressed and purified as previously described[36]–[38]. The methyltransferase plasmid (SETD8 residues 186–352, SETD7 residues 1–366, GLP residues 951–1235, G9a residues 913–1193) transformed into Escherichia coli Rosetta BL21 (DE3)pLysS cells. Cultures were grown at 37 °C in LB media containing kanamycin and chloramphenicol. Cells were grown to an OD600 of 0.5–0.6 (approximately 2.5–3 h), at which point they induced by isopropyl β-D-1-thiogalactopyranoside (IPTG) and they were transferred to a temperature of 16 °C overnight. After letting the cells grow at this temperature, they were then harvested and lysed by sonication. The lysate was centrifuged at high-speed to remove unbroken cells. The supernatant was then centrifuged to further clean the lysate. Purification of the N-terminally his6-tagged KMTs was performed using Ni–NTA affinity chromatography column, which was prewashed with lysis buffer. Target KMT enzyme was then eluted using a linear gradient concentration of imidazole. The elute was then concentrated with centrifugal concentrators (Millipore). All KMT enzymes were further purified by gel filtration on a Superdex 75 column (GE Healthcare) on an AKTA system. Purified proteins were concentrated employing Amicon Ultra Centrifugal Filter Units (Millipore) with suitable molecular weight cutoffs. Proteins concentrations were determined using the Nanodrop DeNovix DS-11 spectrophotometer and the purity was monitored by SDS-PAGE on a 4–15% gradient polyacrylamide gel (Bio-Rad).
Kinetics studies were performed as described[17],[18],[21]. A solution of histone peptide (0–300 μM), was added to a solution of SAM (116 μM) in assay buffer (50 mM Tris, pH 8.0) at room temperature (final volume of 100 μL). […]

The target of test [1] is T2, SETD7 (Homo sapiens, UniProt Q8WTS6).
T2 construct: SETD7 residues 1–366; His6 (N); made in house; host or cells: Escherichia coli Rosetta BL21 (DE3)pLysS
T2 sequence (Q8WTS6 1-366): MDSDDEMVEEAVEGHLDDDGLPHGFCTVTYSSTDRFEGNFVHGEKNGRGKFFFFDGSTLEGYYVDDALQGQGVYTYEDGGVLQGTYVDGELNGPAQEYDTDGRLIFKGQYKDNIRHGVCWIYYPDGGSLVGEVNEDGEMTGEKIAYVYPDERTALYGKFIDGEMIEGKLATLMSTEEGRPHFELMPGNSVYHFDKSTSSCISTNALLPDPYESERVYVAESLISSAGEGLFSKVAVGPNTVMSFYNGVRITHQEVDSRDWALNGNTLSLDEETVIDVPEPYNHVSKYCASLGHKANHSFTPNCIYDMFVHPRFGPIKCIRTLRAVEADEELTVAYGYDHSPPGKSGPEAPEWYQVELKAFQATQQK
Nature of the test: MALDI-TOF MS methylation assay with SETD7. The protocol: Histone peptides bearing the lysine analogues KO and KN were examined as substrates for the recombinantly expressed human KMTs using MALDI-TOF MS assays as a direct method to monitor histone methylation. We tested whether KO and KN can be methylated by di- and trimethyltransferases GLP and G9a, and monomethyltransferases SETD7 and SETD8. Samples containing the human KMT enzyme (2 µM), histone peptide (100 µM), and SAM (500 µM with GLP and G9a; 200 µM with SETD8 and SETD7) in Tris buffer (50 mM, pH 8.0) were incubated for 1 h at 37 °C. Following established enzymatic conditions[17]–[19],[21],[22], all lysine-containing histone peptides were efficiently methylated by the four KMTs (Fig. 5a,d,g,j, respectively). […] In the G9a assay, traces (< 5%) of the dimethylated species H3KO9me2 were also observed. […] We further analyzed the product distribution of these two peptide substrates with G9a and GLP throughout the time course of methylation.
Red spectra show 1 h reactions at 37 °C including KMTs (2 µM), histone peptide (100 µM) and SAM (500 µM for GLP/G9a and 200 µM for SETD8/SED7) and black spectra the no-enzyme controls.
The lack of methylation of these two analogues with SETD7 indicated a selectivity between KMTs.
as §1
Histone methyltransferase assay was carried out as described in 30 µL final total volume[17]–[19],[21],[22]. In brief, purified KMTs enzymes (2 µM of each enzyme per each reaction) were incubated with 100 µM of purified histone peptides in the methyltransferase assay buffer Tris–HCl (pH 8.0) and methyl donor SAM (500 µM with GLP and G9a; 200 µM with SETD8 and SETD7) for 1 h at 37 °C. 3 µL of reaction mixture was quenched with an equal amount of MeOH (1:1 ratio). Then, 3 µL of this mixture was added to an equal amount volume of a standard α-cyano-4-hydroxycinnamic acid matrix solution for spotting on a MALDI plate (Stainless ground steel 96/12 Bruker-Daltonik, Bremen-Germany). The mass spectra of peptides were analyzed by MALDI-TOF MS. […]

For test [2], the target named is T2, SETD7. Nature of the test: Inhibition of SETD7-catalyzed methylation of 14-mer H3K4. The conditions noted are these: for IC50: SETD7 200 nM, 14-mer H3K4 10 µM, inhibitor 1-200 µM, 4 repeats (dose-response of H3KO4). The protocol: Residual activity assays monitoring the KMT-catalyzed methylation of the histone peptides were then carried out, aimed at providing competitive data of these two substrates as compared to the 14-mer H3K9 peptide for the active site of G9a/GLP, and to determine whether the two lysine analogues inhibit G9a- and GLP-catalyzed methylation of H3K9.
as §1
Supplementary Figure 19. […] Error bars represent the standard deviation from 4 repeats.

[3] abbreviates: SETD8 2 µM, peptide 0–300 μM, SAM 116 μM, 50 mM Tris, pH 8.0, room temperature, 10 min, MALDI-TOF MS, value ± SD, replicates.
[4] abbreviates: SETD7 2 µM, peptide 100 µM, SAM 200 µM, Tris 50 mM, pH 8.0, 1 h at 37 °C.

For the compound “GGAKRHRK^20VLRDNIQ [H4K20, native peptide fragment 13–27 of H4]”, at SETD8 (SETD8 2 µM, peptide 0–300 μM, SAM 116 μM, 50 mM Tris, pH 8.0, room temperature, 10 min, MALDI-TOF MS), the kcat/Km – broadly, the second-order rate constant that governs catalysis at low substrate concentration – worked out at 86.8 M⁻¹ s⁻¹. Also, on SETD8 (setting [3]), the Km (as a rule, the substrate concentration at which the rate is half of its maximum) worked out at 104 ± 25.3 µM and the kcat (in general, the maximal rate divided by the concentration of active sites) was found to be 0.009 ± 0.00183 s⁻¹. Further, on SETD8 (comparison of kinetics data including H4KC20 of ref 18), the “order in which SETD8 tolerates modifications at the γ position (kinetics)” value is “H4K20 > H4KC20 > H4KN20 > H4KO20”.

Regarding `C[C@H](N)C(=O)N[C@@H](CCCNC(=N)N)C(=O)N[C@H](C(=O)N[C@@H](COCCN)C(=O)N[C@@H](CCC(N)=O)C(=O)N[C@H](C(=O)N[C@@H](C)C(=O)N[C@@H](CCCNC(=N)N)C(=O)N[C@@H](CCCCN)C(=O)N[C@@H](CO)C(=O)N[C@H](C(=O)NCC(=O)NCC(=O)N[C@@H](CCCCN)C(=O)N[C@@H](C)C(N)=O)[C@@H](C)O)[C@@H](C)O)[C@@H](C)O` [H3KO4], at SETD7 [1] (setting [4]), the “monomethylated species (traces) with SETD7” value is listed as below 5%. Besides, the IC50 (commonly the midpoint of a concentration-inhibition curve) against SETD7 [2] turned out to be 38.9 µM.

For `C[C@H](N)C(=O)N[C@@H](CCCNC(=N)N)C(=O)N[C@H](C(=O)N[C@@H](CNCCN)C(=O)N[C@@H](CCC(N)=O)C(=O)N[C@H](C(=O)N[C@@H](C)C(=O)N[C@@H](CCCNC(=N)N)C(=O)N[C@@H](CCCCN)C(=O)N[C@@H](CO)C(=O)N[C@H](C(=O)NCC(=O)NCC(=O)N[C@@H](CCCCN)C(=O)N[C@@H](C)C(N)=O)[C@@H](C)O)[C@@H](C)O)[C@@H](C)O` [H3KN4], at SETD7 [1] (setting [4]), the “methylation with SETD7” value is given as “very low levels of methylation were detected; also recorded: significantly reduced” and the “monomethylated species (traces) with SETD7” value is below 5%. Further, the “methylation with SETD7 at high concentration, 1 h” value at SETD7 [1] (SETD7 10 µM, SAM 1 mM, 37 °C, 1 h) was “poorly catalyzed traces”. In addition, at SETD7 [1] (SETD7 10 µM, SAM 1 mM, 37 °C, 3 h), the “methylation with SETD7 at high concentration, 3 h” value is “poorly catalyzed traces; also recorded: only traces of H3KO4me and H3KN4me observed”. On SETD7 [2] (14-mer H3K4 substrate), the “inhibition of SETD7 in words” value is “inactive”. In addition, the IC50 on SETD7 [2] was above 100 µM.

Values taken from PMC7726145, “Fine-tuning of lysine side chain modulates the activity of histone lysine methyltransferases” (Scientific Reports, 2020).
